Test results taken from patent publication US6676932B2, “Ultraviolet absorbent, photostabilizer, ultraviolet ray-absorbing composition, photostabilized composition and external preparation for skin” (Shiseido Co., Ltd., priority 2001, dated 2004).

Experiments:
[1] = Stability test in combination with inorganic powder-based ultraviolet shielding agent, sunscreen cream (Test Example 5); type: physicochemical; conditions: sunscreen cream with inorganic powders; ultraviolet absorbent 10.0 wt %; 50° C. for 2 months; visual observation
Procedure: A sunscreen cream of the following formulation was prepared and stored at 50° C. for 2 months. Under visual observation of the color change, the stability of the inventive pyridazine derivative in combination with inorganic powder-based ultraviolet screening agents commonly in blend as external preparations for skin for the purpose of ultraviolet prevention was examined.
After the ingredient 2 was added to the ingredient 1 to swell the ingredient 2, the ingredients 3 to 11 were mixed with the resulting mixture under heating, for sufficient dispersion and dissolution. While keeping the dispersion at 70° C., a solution of the mixture of the ingredients 12 to 15 was gradually added to the dispersion under thorough emulsification with a homomixer. The resulting mixture was cooled to 30° C. under sufficient stirring to prepare sunscreen creams.

[2] = test system: skin; assay: Test of skin irritation: 24-hour occlusion patch test (Test Example 3 ii); type: in vivo, human; conditions: 10 wt % ultraviolet absorbent
Procedure: (§1) The same samples as in the Test Example 2 were used (at a 10 wt % amount of an ultraviolet absorbent).
20 Healthy male and female volunteers per one group were carried out in a 24-hour occlusion patch test, using a fin chamber on forearm curves. Assessment was done on the basis of the following assessment standards.
Mean score was determined for the assessment on the basis of the following standards.
(§2) ◯: mean score of more than 0 to less than 1.
(§3) Δ: mean score of 1 or more to less than 2.
(§4) x: mean score of 2 or more.

[3] = test system: skin; assay: Test of skin irritation: continuous application test (Test Example 3 i); type: in vivo, human; conditions: 10 wt % ultraviolet absorbent, twice daily for 4 weeks
Procedure: as §1
Continuous application test was carried out for 20 healthy subjects per one group. An appropriate amount of each of the samples was coated twice daily for 4 weeks. The effects were assessed according to the following assessment standards.
Mean score was calculated for the determination of the effect on the basis of the following standards.
as §2, §3, §4

[4] = Dye stabilization effect under daylight exposure (Test Examples 6-91); type: physicochemical; parameters: key to Δ E: color difference ΔE in Lab vs. color before daylight exposure; key to Appearance (visual determination): ◯: no change; Δ: almost no change; x: change; conditions: photostabilizer 0.05 wt %, daylight exposure (80 MJ)
Outline: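 Test samples exposed to daylight to 80 MJ; appearance judged visually. Colour measured by spectrophotometer in Lab coordinates, with ΔE calculated relative to pre-exposure values (L1, a1, b1).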

[5] = test system: sunburn; assay: Ultraviolet preventive effect, application test on beach in summer (Test Example 2); type: in vivo, human
Procedure: An application test was carried out on beach in summer. Equal volumes of samples were individually coated on back halves of subjects. After exposure to direct daylight, the degree of sunburn was assessed according to the following assessment standards. Each group consists of 10 subjects.
Prominently effective: none or almost no sunburn symptom was observed.
Effective: light sunburn symptom was observed.
Ineffective: strong sunburn symptom was observed.
⊚: prominently effective or effective for 80% or more of the subjects.
◯: prominently effective or effective for 50% or more to less than 80% of the subjects.
Δ: prominently effective or effective for 30% or more to less than 50% of the subjects.
x: prominently effective or effective for less than 30% of the subjects.
The aqueous phase and the alcohol phase were separately prepared and then mixed together.
Propylene glycol was added to and dissolved in ion exchange water. The resulting solution was retained at 70° C. under heating (aqueous phase). Other ingredients were mixed […]. The resulting mixture was melted under heating and retained at 70° C. (oil phase). The oil phase was added to the aqueous phase, for preliminary emulsification with a homomixer to homogeneity. Under thorough mixing, subsequently, the mixture was cooled to 30° C.

[6] = Photostability test of aqueous solutions under daylight (Test Example 4); type: physicochemical; conditions: aqueous solution, daylight for 2 weeks (80 MJ)
Procedure: Aqueous solutions of the pyridazine derivative of the invention were exposed to daylight for 2 weeks (at a daylight exposure of 80 MJ). Subsequently, the remaining ratio and the change of the appearance were examined to measure the ultraviolet spectra with a spectrophotometer (solvent: water; concentration of 10 ppm and optical path length of 1 cm). The area under ultraviolet spectra curve from 290 nm to 400 nm were determined by integration to compare the area with the area before daylight exposure.
The remaining ratio and the change of the area under the ultraviolet spectrum were determined on the basis of the following standards.
⊚: 95% or more of those before daylight exposure.
◯: 90% or more to less than 95% of those before daylight exposure.
Δ: 70% or more to less than 90% of those before daylight exposure.
x: less than 70% of those before daylight exposure.

[7] = Drug stabilization effect blended with sequestering agent (Test Examples 372 to 391); type: physicochemical; parameters: key to Appearance (visual determination): ◯: no change; Δ: almost no change; x: change; conditions: drug Glycyrrhizinic acid dipotassium 0.05, photostabilizer blend amount 0.03, daylight exposure (80 MJ)
Procedure: Then, the photostabilization effect of the pyridazine derivative in combination with sequestering agents on each drug and the change of the appearance of each composition were examined, by using the following formulation for assessment.
(§5) For observation of the change of the appearance of each test sample (determination based on visual observation) and the measurement of the remaining ratio by liquid chromatography before and after daylight exposure (80 MJ), the test sample was prepared.

[8] = Drug stabilization effect under daylight exposure (Test Examples 182 to 211); type: physicochemical; parameters: key to Appearance (visual determination): ◯: no change; Δ: almost no change; x: change; conditions: photostabilizer 0.05 wt %, daylight exposure (80 MJ); for Remaining ratio (%): liquid chromatography
Procedure: as §5

[9] = dye Blue 1 (Brilliant Blue FCF) 0.0001 wt %
[10] = dye Green 3 (Fast Green FCF) 0.001 wt %
[11] = dye Red 227 (Acid Fuchsine D) 0.0001 wt %
[12] = dye Yellow 5 (Sunset Yellow FCF) 0.001 wt %
[13] = dyes Red 106 (Acid red) 0.00001 + Yellow 203 (Quinoline Yellow WS) 0.0001 wt %
[14] = dyes Red 213 (Rhodamine B) 0.00001 + Blue 1 (Brilliant Blue FCF) 0.00001 wt %
[15] = dyes Red 401 (Violanin R) 0.0001 + Blue 1 (Brilliant Blue FCF) 0.00001 wt %
[16] = drug Dipotassium glycyrrhizinate 0.05 wt %
[17] = drug dibutylhydroxytoluene 0.01 wt %
[18] = drug dl-α-tocopherol 2-L-ascorbic acid phosphate diester potassium salt 0.01 wt %

Oc1cc(N2CCOCC2)cnn1 [3-Hydroxy-5-morpholinopyridazine, 3-hydroxy-5-morpholinopyridazine]
Color change [1]: no | Determination (skin reaction, patch test) ([2]; cream): ⊚ (mean score of 0) | Determination (skin reaction, patch test) ([2]; lotion): ⊚ (mean score of 0) | Determination (skin reaction, continuous application test) ([3]; cream): ⊚ (mean score of 0) | Determination (skin reaction, continuous application test) ([3]; lotion): ⊚ (mean score of 0) | Appearance (visual determination) [4, 9]: ◯ | Δ E [4, 9]: 1.31 | Appearance (visual determination) [4, 10]: ◯ | Δ E [4, 10]: 0.48 | Appearance (visual determination) [4, 11]: ◯ | Δ E [4, 11]: 0.52 | Appearance (visual determination) [4, 12]: ◯ | Δ E [4, 12]: 0.52 | Appearance (visual determination) [4, 13]: ◯ | Δ E [4, 13]: 0.85 | Appearance (visual determination) [4, 14]: ◯ | Δ E [4, 14]: 1.08 | Appearance (visual determination) [4, 15]: ◯ | Δ E [4, 15]: 0.44 | Ultraviolet prevention effect ([5]; cream, blend amount 0.0005 wt %): Δ (prominently effective or effective for 30% or more to less than 50% of the subjects) | Ultraviolet prevention effect ([5]; cream, blend amount 0.001 wt %): ◯ (prominently effective or effective for 50% or more to less than 80% of the subjects) | Ultraviolet prevention effect ([5]; cream, blend amount 0.01 wt %): ⊚ (prominently effective or effective for 80% or more of the subjects) | Ultraviolet prevention effect ([5]; cream, blend amount 1 wt %): ⊚ (prominently effective or effective for 80% or more of the subjects) | Ultraviolet prevention effect ([5]; cream, blend amount 5 wt %): ⊚ (prominently effective or effective for 80% or more of the subjects) | Ultraviolet prevention effect ([5]; cream, blend amount 10 wt %): ⊚ (prominently effective or effective for 80% or more of the subjects) | Ultraviolet prevention effect ([5]; cream, blend amount 20 wt %): ⊚ (prominently effective or effective for 80% or more of the subjects) | Ultraviolet prevention effect ([5]; lotion, blend amount 0.0005 wt %): Δ (prominently effective or effective for 30% or more to less than 50% of the subjects) | Ultraviolet prevention effect ([5]; lotion, blend amount 0.001 wt %): ◯ (prominently effective or effective for 50% or more to less than 80% of the subjects) | Ultraviolet prevention effect ([5]; lotion, blend amount 0.01 wt %): ⊚ (prominently effective or effective for 80% or more of the subjects) | Ultraviolet prevention effect ([5]; lotion, blend amount 1 wt %): ⊚ (prominently effective or effective for 80% or more of the subjects) | Ultraviolet prevention effect ([5]; lotion, blend amount 5 wt %): ⊚ (prominently effective or effective for 80% or more of the subjects) | Ultraviolet prevention effect ([5]; lotion, blend amount 10 wt %): ⊚ (prominently effective or effective for 80% or more of the subjects) | Ultraviolet prevention effect ([5]; lotion, blend amount 20 wt %): ⊚ (prominently effective or effective for 80% or more of the subjects) | Remaining ratio [6]: ⊚ (95% or more of those before daylight exposure) | Change of area under ultraviolet spectrum ([6]; 290 nm to 400 nm): ⊚ (95% or more of those before daylight exposure) | Appearance (visual determination) ([7]; no sequestering agent): ◯ | Appearance (visual determination) ([7]; with sodium metaphosphate 0.03): ◯ | Appearance (visual determination) [8, 16]: ◯ | Remaining ratio (%) [8, 16]: 98.9% | Appearance (visual determination) [8, 17]: ◯ | Remaining ratio (%) [8, 17]: 98.8% | Appearance (visual determination) [8, 18]: ◯ | Remaining ratio (%) [8, 18]: 98.0%
